One data set deals with Integrin alpha-4/beta-1 (Homo sapiens, UniProt P05556+P13612). As to the kind of experiment: Inhibition of integrin alpha-4-beta-1 receptor expressed in Jurkat J6 cells by SPA. In kind it is cell-based.
The species named for the next data set is Rattus norvegicus. As to the kind of experiment: Dose normalised AUC (0-8 hrs) in rat. In kind it is ADME, organism-based. More on the design: time < 8 hr. As to conditions: in vivo.
Data set [1] is described as follows: Clearance in iv dosed rat. In kind it is ADME, organism-based. As to conditions: in vivo.
Data set [2] in a line: Volume of distribution of steady state in rat. In kind it is ADME, organism-based. As to conditions: in vivo, read-out: Vss.
Data set [3] is described as follows: Bioavailability in Sprague-Dawley rat at 1 mg/kg, iv and 3 mg/kg, po. It counts as ADME, organism-based. As to conditions: in vivo.
The nature of data set [4]: Half life in rat. It counts as ADME, organism-based. The settings on record: in vivo.

Sequence of Integrin alpha-4/beta-1 (P05556 whole entry): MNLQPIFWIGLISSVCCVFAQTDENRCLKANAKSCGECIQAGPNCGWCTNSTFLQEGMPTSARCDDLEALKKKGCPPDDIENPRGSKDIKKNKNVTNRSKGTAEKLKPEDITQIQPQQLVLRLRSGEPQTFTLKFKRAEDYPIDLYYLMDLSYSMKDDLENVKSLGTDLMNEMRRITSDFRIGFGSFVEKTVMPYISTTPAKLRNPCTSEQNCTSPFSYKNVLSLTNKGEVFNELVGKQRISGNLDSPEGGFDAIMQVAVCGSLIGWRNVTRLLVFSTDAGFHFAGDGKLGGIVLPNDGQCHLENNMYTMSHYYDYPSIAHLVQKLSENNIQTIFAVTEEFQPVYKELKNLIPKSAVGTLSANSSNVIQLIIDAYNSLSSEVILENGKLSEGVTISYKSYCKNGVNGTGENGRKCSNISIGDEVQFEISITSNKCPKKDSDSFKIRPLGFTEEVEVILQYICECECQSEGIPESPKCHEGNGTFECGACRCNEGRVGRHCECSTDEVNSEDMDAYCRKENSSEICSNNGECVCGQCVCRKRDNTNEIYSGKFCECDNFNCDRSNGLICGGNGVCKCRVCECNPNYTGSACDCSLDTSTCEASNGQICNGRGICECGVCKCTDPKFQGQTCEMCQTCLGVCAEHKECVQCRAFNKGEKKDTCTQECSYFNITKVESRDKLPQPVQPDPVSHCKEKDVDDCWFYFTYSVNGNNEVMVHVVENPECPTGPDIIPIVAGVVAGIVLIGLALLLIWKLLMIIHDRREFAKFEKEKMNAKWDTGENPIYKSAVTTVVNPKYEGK
Sequence of Integrin alpha-4/beta-1 (P13612 whole entry): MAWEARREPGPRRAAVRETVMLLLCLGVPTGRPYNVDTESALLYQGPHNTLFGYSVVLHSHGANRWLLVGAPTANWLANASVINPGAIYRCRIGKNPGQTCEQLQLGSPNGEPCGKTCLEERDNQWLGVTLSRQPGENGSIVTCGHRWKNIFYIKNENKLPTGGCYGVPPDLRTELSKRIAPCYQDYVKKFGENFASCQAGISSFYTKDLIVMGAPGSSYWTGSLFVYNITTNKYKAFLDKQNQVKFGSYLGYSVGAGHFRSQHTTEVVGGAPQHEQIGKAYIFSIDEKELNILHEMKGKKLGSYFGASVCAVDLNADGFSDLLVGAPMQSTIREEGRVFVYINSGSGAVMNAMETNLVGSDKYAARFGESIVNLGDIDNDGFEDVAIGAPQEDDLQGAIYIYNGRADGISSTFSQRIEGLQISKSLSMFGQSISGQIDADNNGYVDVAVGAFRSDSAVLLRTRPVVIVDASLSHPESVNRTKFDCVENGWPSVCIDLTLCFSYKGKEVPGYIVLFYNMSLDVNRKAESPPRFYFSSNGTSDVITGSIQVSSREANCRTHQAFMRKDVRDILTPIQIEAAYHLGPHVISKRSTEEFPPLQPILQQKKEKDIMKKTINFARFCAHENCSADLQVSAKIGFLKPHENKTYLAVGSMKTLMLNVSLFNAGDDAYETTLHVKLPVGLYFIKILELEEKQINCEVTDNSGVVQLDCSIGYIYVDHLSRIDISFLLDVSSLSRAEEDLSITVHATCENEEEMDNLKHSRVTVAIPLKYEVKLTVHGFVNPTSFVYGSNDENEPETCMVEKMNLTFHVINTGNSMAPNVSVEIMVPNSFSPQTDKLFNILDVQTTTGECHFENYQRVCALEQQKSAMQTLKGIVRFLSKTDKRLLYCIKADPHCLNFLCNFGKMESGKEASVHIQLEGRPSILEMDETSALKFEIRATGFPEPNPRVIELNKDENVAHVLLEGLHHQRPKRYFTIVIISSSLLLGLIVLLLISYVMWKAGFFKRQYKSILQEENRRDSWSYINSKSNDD

Regarding `COc1cc(-c2cccn(Cc3ccc(CCC(=O)O)cc3)c2=O)ccc1NC(=O)Nc1ccccc1NC(C)=O`, at Integrin alpha-4/beta-1, the Ki (as a rule, the equilibrium dissociation constant of an inhibitor or competing ligand from its target) is 6.31 nM. Still for that read-out and setting: to `Cc1ccccc1NC(=O)Nc1ccc(-c2cccn(Cc3ccc([C@H](C)CC(=O)O)cc3)c2=O)cc1Cl` belongs 0.794 nM; to `COc1cc(-c2cccn(Cc3ccc([C@@H](C)CC(=O)O)cc3)c2=O)ccc1NC(=O)Nc1ccccc1C`, 1 nM; to `CCOc1cc(NC(=O)Nc2ccccc2C)ccc1-c1cccn(Cc2ccc([C@@H](C)CC(=O)O)cc2)c1=O`, 5.01 nM.

Regarding `Cc1ccccc1NC(=O)Nc1ccc(-c2cccn(Cc3ccc([C@@H](C)CC(=O)O)cc3)c2=O)cc1`, the Ki on Integrin alpha-4/beta-1 is 2.51 nM. Still for that read-out and setting: to `Cc1ccccc1NC(=O)Nc1ccc(-c2cccn(Cc3ccc([C@H](C)CC(=O)O)cc3)c2=O)c(C)c1` belongs 1 nM; to `COc1ccccc1NC(=O)Nc1ccc(-c2cccn(Cc3ccc(CCC(=O)O)cc3)c2=O)cc1OC`, 6.31 nM; to `COc1cc(-c2cccn(Cc3ccc(CCC(=O)O)cc3)c2=O)ccc1NC(=O)Nc1ccc(C)cc1C`, 25.1 nM.

At Integrin alpha-4/beta-1, `Cc1ccccc1NC(=O)Nc1ccc(-c2cccn(Cc3ccc([C@H](C)CC(=O)O)cc3)c2=O)cc1C` showed a Ki of 2.51 nM. Still for that read-out and setting: to `CCOc1cc(NC(=O)Nc2ccccc2C)ccc1-c1cccn(Cc2ccc([C@H](C)CC(=O)O)cc2)c1=O` belongs 2 nM. The compound `COc1cc(-c2cccn(Cc3ccc(CCC(=O)O)cc3)c2=O)ccc1NC(=O)Nc1ccccc1C` yielded an AUC in the data set listed under Rattus norvegicus of 6 kg·min/L. Take `Cc1ccccc1NC(=O)Nc1ccc(-c2cccn(Cc3ccc([C@@H](C)CC(=O)O)cc3)c2=O)c(OC(F)(F)F)c1`: the Ki on Integrin alpha-4/beta-1 is 20 nM.

In the case of `Cc1ccccc1NC(=O)Nc1ccc(-c2cccn(Cc3ccc([C@@H](C)CC(=O)O)cc3)c2=O)cc1Cl`, the Ki on Integrin alpha-4/beta-1 is 25.1 nM.

Compound `Cc1ccccc1NC(=O)Nc1ccc(-c2cccn(Cc3ccc(CCC(=O)O)cc3)c2=O)cc1` gave a Ki on Integrin alpha-4/beta-1 of 2.51 nM. The same compound came in with an AUC in the data set listed under Rattus norvegicus of 3 kg·min/L. Take `Cc1ccccc1NC(=O)Nc1ccc(-c2cccn(Cc3ccc([C@H](C)CC(=O)O)cc3)c2=O)c(OC(F)(F)F)c1`: the affinity on Integrin alpha-4/beta-1 corresponds to a Ki of 3.98 nM.

At Integrin alpha-4/beta-1, `COc1cc(-c2cccn(Cc3ccc(CCC(=O)O)cc3)c2=O)ccc1NC(=O)Nc1c(C)cccc1C` showed a Ki of 2 nM. In turn, `COc1cc(-c2cccn(Cc3ccc([C@H](C)CC(=O)O)cc3)c2=O)ccc1NC(=O)Nc1ccccc1C` showed an inhibition constant (Ki) at Integrin alpha-4/beta-1 of 0.794 nM. The clearance (commonly the rate of elimination divided by the concentration) in data set [1] is 9 mL/min/kg. For the same compound, the Vd in data set [2] amounted to 0.6 L/kg. In addition, the bioavailability in data set [3] stood at 121%. Also, the half-life (usually the time in which the quantity being followed falls by half) in data set [4] was 1.4 h. The compound also showed an AUC in the data set filed under Rattus norvegicus of 154 kg·min/L. `Cc1ccccc1NC(=O)Nc1ccc(-c2cccn(Cc3ccc([C@@H](C)CC(=O)O)cc3)c2=O)c(Cl)c1` showed an inhibitory constant (Ki) on Integrin alpha-4/beta-1 of 2 nM. Still for that read-out and setting: to `Cc1ccccc1NC(=O)Nc1ccc(-c2cccn(Cc3ccc([C@H](C)CC(=O)O)cc3)c2=O)c(Cl)c1` belongs 1 nM; to `COc1cc(-c2cccn(Cc3ccc(CCC(=O)O)cc3)c2=O)ccc1NC(=O)Nc1cccc(C)c1C`, 25.1 nM. Same read-out and setting: to `COc1cc(-c2cccn(Cc3ccc(CCC(=O)O)cc3)c2=O)ccc1NC(=O)Nc1ccccc1Br` belongs 5.01 nM. Still for that read-out and setting: to `CCc1cc(NC(=O)Nc2ccccc2C)ccc1-c1cccn(Cc2ccc([C@@H](C)CC(=O)O)cc2)c1=O` belongs 50.1 nM; to `Cc1ccccc1NC(=O)Nc1ccc(-c2cccn(Cc3ccc([C@@H](C)CC(=O)O)cc3)c2=O)c(C)c1`, 2.51 nM. Turning to `Cc1ccccc1NC(=O)Nc1ccc(-c2cccn(Cc3ccc([C@@H](C)CC(=O)O)cc3)c2=O)cc1C`, on Integrin alpha-4/beta-1, the affinity, expressed as Ki, was 20 nM. Turning to `COc1cc(-c2cccn(Cc3ccc(CCC(=O)O)cc3)c2=O)ccc1NC(=O)Nc1ccccc1C(C)C`, on Integrin alpha-4/beta-1, the affinity corresponds to a Ki of 316 nM. Same read-out and setting: to `CCc1cc(NC(=O)Nc2ccccc2C)ccc1-c1cccn(Cc2ccc([C@H](C)CC(=O)O)cc2)c1=O` belongs 6.31 nM. Still for that read-out and setting: under `COc1cc(-c2cccn(Cc3ccc(CCC(=O)O)cc3)c2=O)ccc1NC(=O)Nc1ccccc1` stands 1.58 nM; under `COc1cc(-c2cccn(Cc3ccc(CCC(=O)O)cc3)c2=O)ccc1NC(=O)Nc1cc(C)ccc1C`, 7.94 nM. In turn, `Cc1ccccc1NC(=O)Nc1ccc(-c2cccn(Cc3ccc([C@H](C)CC(=O)O)cc3)c2=O)cc1` gave a Ki on Integrin alpha-4/beta-1 of 1 nM. In data set [1], this compound returned a clearance of 16 mL/min/kg. Further, the Vd in data set [2] is 0.6 L/kg. For the same compound, in data set [3], the bioavailability stood at 22%. This compound had a half-life in data set [4] of 1.3 h. Besides, the AUC in the data set filed under Rattus norvegicus amounted to 14 kg·min/L.
